Measured values: PMC12876990, “Targeting secreted PLA2 interactions with EGFR and vimentin to arrest prostate tumour growth” (Cell Death & Disease, 2025)
Peptide text beside a SMILES is read from it.

Key:
[1] = biological target: T1, hGIIA/vimentin interaction (Homo sapiens, UniProt P08670); assay: Enzyme immunoassay of hGIIA binding to vimentin coil 2; settings: 0.1-100 µM
T1 construct: Purified vimentin fragments (full length or coil 2) were seeded to a 96-well microplate at 15 μg/mL; hGIIA purified in house from conditioned medium of CHO cell line 2B1
T1 sequence (P08670 269-407 limits assumed): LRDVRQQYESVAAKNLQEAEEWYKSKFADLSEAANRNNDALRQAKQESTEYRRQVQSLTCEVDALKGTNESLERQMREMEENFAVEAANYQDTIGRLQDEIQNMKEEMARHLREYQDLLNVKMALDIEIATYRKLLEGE
Description: Prior to assay, hGIIA antibody 4A1 was conjugated to alkaline phosphatase (4A1-AP), produced using the lightning-link conjugation kit (ab102850, Abcam) as per the manufacturer’s instructions.
Purified vimentin fragments (full length or coil 2) were seeded to a 96-well microplate at 15 μg/mL with a 100 μL/well volume. After an overnight incubation at 4 °C, the plate was emptied. Each well was then blocked overnight at 4 °C with 200 μL of 1% BSA in PBS. The plate was emptied and washed with PBST (PBS + 0.05% Tween20). hGIIA solution of 100 ng/mL in PBS with 0.1% BSA was prepared with and without inhibitors c2, Withaferin A and LY311727 in DMSO with concentrations 0.1-100 µM. hGIIA working solution with 0.4% DMSO served as a positive control and PBS with 0.1% BSA served as a negative control. A 100 μL volume of each prepared hGIIA-inhibitor mixture was added to wells in triplicate and incubated at 37 °C for two hours. The plate was washed twice with PBST, then incubated with the 4A1-AP conjugate at 1 μg/mL 0.1% BSA in PBS and incubated for one hour at 37 °C. Plates were then emptied and washed three times with PBST, followed by washing twice with carbonate buffer (8 mM Na2CO3, 36 mM NaHCO3, 2 mM MgCl2, pH 9.8), before incubation with AP substrate p-nitro-phenyl phosphate (PNPP) powder at 1 mg/mL concentration in carbonate buffer. The plate was incubated at 37 °C for 60 mins then absorbance was read at 405 nm by a Spectramax M2 plate reader. All washes were a 200 µL/well volume.

[2] = cited from earlier work
[3] = Pharmacokinetics of tritiated cF and c2 in BALB/c mice; format: in vivo
Description: All animal studies were performed according to the guidelines for the ethical use of animals published by the National Health and Medical Research Council of Australia. Mouse pharmacokinetic studies were conducted with approval from the Garvan Institute Animal Ethics Committee (approval #02/21). cF and c2 were radioactively labelled with tritium by catalytic saturation of peptide analogues containing dehydroleucine (Sibtech Inc.), yielding high specific activity (50–60 Ci/mmol) peptides. Their identity was confirmed by three separate analytical methods prior to delivery. Mice (BALB/c, n = 4 per timepoint) were administered a single dose of peptide by the routes and times indicated. Animals were then exsanguinated by cardiac puncture under halothane anaesthesia followed by cervical dislocation. Tissues and plasma were stored at −80 °C prior to analysis. For plasma, a known volume of plasma was added to liquid scintillant (Ultima Gold, Perkin Elmer). For tissues, a known amount of tissue (50–100 mg) was incubated in NaOH (1 mL, 1 M) overnight at room temperature. The solutions were then bleached with disodium EDTA (100 µl, 0.1%) and hydrogen peroxide (300 µl, 30%) and incubated at 50 °C for one hour. The peptide content of plasma and tissues was determined by liquid scintillation counting. The stability of the peptides following administration to animals was evaluated by thin-layer chromatography of tissue-extracted peptide relative to peptide prior to injection (Fig. S2c).

[4] = Toxicity and serum enzyme levels in PCa xenograft model mice; format: in vivo
Description: Fig. 1 Derived from the structure of hGIIA, cF and c2 are orally absorbed, cell permeable and non-toxic. a Structure of hGIIA showing disulphide bonds (yellow) and the location of the peptide sequence ^70FLSYK^74 (cyan), which was cyclised to produce pentapeptide cF, then modified to produce c2. b Plasma concentrations of tritiated cF (red) and c2 (blue) following subcutaneous (sc) administration (circles) or oral (po) administration (squares) at 5 mg/kg to BALB/c mice (mean ± SE, n = 4 per time point). Tissue concentrations of c cF and d c2 following sc administration determined in the liver (blue) and kidney (brown) (mean ± SE). Dashed lines indicate estimated background levels of tritium in tissues due to tissue blood content (10% of peak plasma concentration). e–i Following po administration of c2 at 100 mg/kg to male rats (n = 5 per group), levels of c2 were measured in e plasma, f kidney, g faeces, h urine and i liver at timepoints indicated via LCMS/MS (mean ± SE). j Serum enzyme levels of markers of kidney function (creatinine), liver damage (AST and ALT) and heart damage (CK) in PCa xenograft model mice in response to treatment with vehicle (po, 3 x weekly for 6.1 ± 1.6 weeks), cF (10 mg/kg, po, 3 x weekly for 5.4 ± 0.9 weeks) or c2 (10 mg/kg, po, 3 x weekly for 4.8 ± 0.8 weeks) (n = 4, mean ± SE). Data were obtained by the South Eastern Area Laboratory Services Pathology Laboratory at Prince of Wales Hospital, Randwick, Australia. k PCa cell lines LNCaP, PC-3, and DU145 cells incubated with 100 µM c2 (green) for 24 hours with DAPI (blue), scale bar 10 µm (representative cells of n = 3 biological replicates, 5 cells per replicate).
A key failing of previous enzymatic inhibitors of hGIIA was toxicity, resulting in increased incidence of myocardial infarction in a phase III clinical trial. Thus, the toxicity profile of novel hGIIA inhibitors is critically important in evaluating new inhibitors. […] Extensive histopathology was performed on all animals in the control and high dose groups sacrificed on day 29, with no difference observed between the treated groups and the vehicle control group by any measure. […] In light of the toxicity associated with the myocardial infarction study, data from this c2 toxicity study relevant to heart toxicity are shown in Table 1. Heart wet weight was not affected by either low or high dose relative to vehicle, indicating the compound has no significant pro-hypertrophy effect at these doses. The lack of effect of c2 on gross necropsy or histopathology scores also supports the preclinical safety of the compound in the heart. Importantly, c2 has no effect on serum potassium levels or the Na/K ratio, since hypokalemia (low potassium) is highly arrythmogenic. […] It is of interest also that serum alanine transaminase is unaffected by c2 at the doses tested, since this marker was raised three-fold over the normal range in 6.3-fold more patients on varespladib than placebo in the VISTA acute coronary syndrome trial of this sPLA2 inhibitor [13].

[5] = test system: LNCaP-luc xenograft tumours; assay: Androgen-sensitive xenograft model; format: in vivo, BALB/c nu/nu mice; settings: cF 2 mg/kg po daily
Description: BALB/c nu/nu mice (which express murine hGIIA) (n = 13 per group) were injected subcutaneously with 1 × 10^6 luciferase-tagged LNCaP cells (LNCaP-luc) in RPMI 5% FBS/Matrigel (1:1). Subcutaneous tumours (> 65.5 mm^3), in mice randomised to […], were treated by gavage with either vehicle (saline, 1% dimethylformamide (DMF), po, daily) cF (2 mg/kg po, daily) or c2 (0.1 mg/kg, thrice weekly). Mouse weight and tumour diameter, ((d1) and at 90 degrees to d1 (d2) measured with calipers) were recorded twice weekly. Diameter measurements were used to calculate tumour volume; Vol. = π/6 (d1.d2)^3/2, with treatments blinded to experimentalists. Animals were treated for 8-10 weeks unless culled due to tumour volume reaching 15 x 15 mm (1768 mm^3). End of study plasma PSA levels were measured by ELISA. Bioluminescence images were obtained weekly using the IVIS® Lumina (Perkin-Elmer). D-Luciferin, Firefly, potassium salt (150 mg/kg), (Gold Biotechnology Inc.) substrate was administered intraperitoneally prior to imaging. Images were acquired after 10 min with an image time of 60 s, medium binning, F/Stop=1. Images were quantified using the Living Image software (Perkin-Elmer).
(§1) Tumours were fixed with 10% neutral buffered formalin and stored in 70% ethanol, then paraffin-embedded and cut into 5 µm consecutive sections. Samples were deparaffinised with xylene and […] with ethanol using standard protocols, with antigens retrieved by incubating samples in citrate buffer (pH 6) at 95 °C for 20 min. Samples were then incubated with 3% H2O2 in methanol for 30 min to remove endogenous peroxidases, then blocked with 10% goat serum in PBS for 30 min. Samples were then incubated overnight at 4 °C with a range of antibodies: Ki67 (Abcam, ab15580, 1:100), vimentin (1:333), CD31 (Abcam, ab28364, 1:50) and hGIIA (1:100) (Cayman Chemical, Ann Arbour, MI). TUNEL assay (Abcam) was also used to identify apoptosis. Samples were then washed, stained with Rabbit IHC secondary antibody (1:100) (Dako, Glostrup, Denmark) and counterstained with Gill's haematoxylin (1:5) (Dako). Samples were imaged using an M8 digital microscope (PreciPoint GmbH, Freising, Germany) and DAB staining was scored in a blind manner using ImageJ as described previously.

[6] = test system: LNCaP-luc xenograft tumours in castrated mice; assay: Castrate-resistant model of PCa; format: in vivo, BALB/c nu/nu mice; settings: cF 2 mg/kg po daily; p = 0.0419
Text: Mice (BALB/c nu/nu) carrying LNCaP-luc xenograft tumours ( > 65.5 mm^3) were surgically castrated 2.0 - 6.6 weeks post-tumour establishment. Treatment was commenced five weeks post-castration and the study terminated 10 weeks post-treatment commencement.

[7] = test system: PC-3M-luc xenograft tumours; assay: Androgen-receptor independent xenograft model; format: in vivo, BALB/c nu/nu mice
Description: Mice (BALB/c nu/nu) carrying luciferase-tagged PC-3M cells (PC-3M-luc) were each injected sc with 1 × 10^6 cells suspended in RPMI culture medium. […] Tumour volume and animal weights were measured twice weekly.
as §1

hGIIA = settings: cited from earlier work
[8] = test system: fibroblast-like synoviocytes derived from patients with rheumatoid arthritis; settings: cited from earlier work
castrate-resistant PCa = test system: castrate-resistant PCa; set-up: method as in PMID 15470213; settings: cited from earlier work

With `CC1=C(CO)C(=O)O[C@@H]([C@@H](C)[C@H]2CC[C@H]3[C@@H]4C[C@H]5O[C@]56[C@@H](O)C=CC(=O)[C@]6(C)[C@H]4CC[C@]23C)C1` [withaferin A] the “inhibition of the hGIIA/vimentin interaction” value [1] was “did not inhibit”.
In the case of `CCc1c(C(=O)C(N)=O)c2c(OCC(=O)O)cccc2n1Cc1ccccc1` [varespladib], the “patients with ALT raised three-fold over the normal range, varespladib vs placebo” value [2] is given as 6.3 fold.
With `CCc1c(CC(N)=O)c2cc(OCCCP(=O)(O)O)ccc2n1Cc1ccccc1` [LY311727] the “inhibition of the hGIIA/vimentin interaction” value [1] was “did not inhibit”.
In the case of `CC(C)C[C@@H]1NC(=O)[C@H](Cc2ccccc2)NC(=O)[C@H](CCCNC(=N)N)NC(=O)[C@H](Cc2ccc(O)cc2)NC(=O)[C@H](CO)NC1=O` [cF, cyclo-(Phe-Leu Ser-Tyr-Arg)] (cyclo(FLSYR)), the “liver and kidney concentrations relative to c2” value ([3]; 5 mg/kg) is reported as ~ 10 fold, the “plasma concentration relative to c2” value ([3]; 5 mg/kg, sc or po) is reported as ~ 10 fold and the “oral bioavailability (in words)” value ([3]; sc and po administration) is reported as “orally bioavailable”. The “oral bioavailability relative to sc delivery (AUC analysis)” value ([3]; tritiated peptide 5 mg/kg, po vs sc, at 16 hours) was roughly 20%, the “serum creatinine, aspartate aminotransferase, alanine aminotransferase, creatine kinase levels” value ([4]; 10 mg/kg po thrice weekly) was “no significant changes” and the damage to organs ([4]; 10 mg/kg thrice weekly for 10 weeks) was “no observable damage to organs”. For the same molecule, the gross toxicity ([4]; max dosages of 10 mg/kg thrice weekly for 10 weeks) was “No gross toxicity”, the tumour volume ([5]; ten weeks, p = 0.0229) was “significant suppression” and the PSA levels ([5]; p = 0.0158) was “significantly reduced”. The tumour weight ([5]; p = 0.0235) was “significant suppression”, the luciferase signal ([5]; p = 0.0284) was “reduced” and the “relative tumour volume from time 0 at 10 weeks” value [6] was “significantly reduced”. For the same molecule, the “increase of TUNEL signal” value ([7]; cF) was “not seen”, the “proliferative marker Ki67 relative to control” value ([7]; cF) was “significant increase” and the “growth of tumours relative to vehicle controls” value ([7]; cF 5 mg/kg daily po, p < 0.05) was “significantly slowed the growth of tumours”. The “animals surviving until study termination at 6 months” value ([7]; cF daily) was 13%, the “potency in the inhibition of hGIIA catalytic activity, less than other hGIIA inhibitors” value (hGIIA) was ~ 1000 fold and the “synthesis of exogenous hGIIA-mediated prostaglandin (PG)” value [8] was “suppress”.
For `CC(=O)O[C@@]12CO[C@@H]1C[C@H](O)[C@@]1(C)C(=O)[C@H](O)C3=C(C)[C@@H](OC(=O)[C@H](O)[C@@H](NC(=O)OC(C)(C)C)c4ccccc4)C[C@@](O)([C@@H](OC(=O)c4ccccc4)[C@H]21)C3(C)C` [docetaxel], the tumour response (castrate-resistant PCa) is listed as 12%.
